Experimental data taken from publication PMC1925066, “Optical biosensor differentiates signaling of endogenous PAR1 and PAR2 in A431 cells” (BMC Cell Biology, 2007).
Where a SMILES comes first, the peptide text is derived from it.

Legend:
EGFR in A431 cells [1] = test: Interference of EGFR activation with PAR signaling, DMR signal; type: cell-based, human
Description: (§1) A431 cells express large numbers of EGF receptors. AG1478 is a potent and selective EGFR tyrosine kinase inhibitor. It is also known that cholesterol removal by mβCD triggers a ligand-independent transactivation of EGFR in A431 cells. Thus, we were interested the interference of EGFR activation with PAR signaling. The preceding stimulation with EGF had little effect on the Ca^2+ mobilization induced by trypsin (Fig. 9a) or thrombin (data not shown).
(§2) Figure 9 The effect of preceding EGF stimulation on PAR signaling. (a) The Ca^2+ mobilization. (b, c) The DMR signals. The ligands were EGF (100 nM), trypsin (100 nM), and thrombin (40 unit/ml). The cell responses with the pre-treatment with the HBSS only were also included as control.
(§3) Corning® Epic™ angular interrogation system with transverse magnetic or p-polarized TM0 mode was used for all studies. The detailed instrumental setup and assay protocols had been previously described. Briefly, all compound solutions were prepared using 1 × HBSS containing minimal amount of dimethyl sulfoxide, while the starved cells were washed and maintained with 100 μl the serum-free DMEM. The cells were then treated with 50 μl 1 × HBSS buffered solution in the absence and presence of a compound, followed by stimulation with ligand solutions. The cellular responses were monitored in real time throughout the assays.

EGFR in A431 cells [2] = system: EGFR in A431 cells; design: method as in PMID 16766609; settings: blockage of EGFR tyrosine kinase activity in A431; cited from earlier work
[3] = system: endogenous PAR1 and PAR2 in A431 cells; test: Fluo-3 Ca2+ mobilization (Ca2+ flux) assay in quiescent A431 cells; type: cell-based, human; settings: for maximal [Ca^2+]i elevation: SFLLR-amide at 80 μM; for responsiveness (Ca^2+ mobilization) after pre-stimulation with thrombin: thrombin 40 unit/ml first; for Ca^2+ mobilization response after pre-stimulation with trypsin: trypsin 200 nM first, repeated stimulation separated by 6 min; for rapid and transient increase in intracellular Ca^2+: quiescent A431 cells
Protocol: (§4) Human epidermoid carcinoma A431 cells ([…]) were grown in Dulbecco's modified Eagle's medium (DMEM) supplemented with 10% fetal bovine serum (FBS), 4.5 g/liter glucose, 2 mM glutamine, and antibiotics. ~5 × 10^4 cells at passage 3 to 8 suspended in 200 μl the DMEM medium containing 10% FBS were placed in each well of a 96well microplate, and were cultured at 37°C under air/5% CO2 for ~2 days, followed by ~20 hr starvation through continuously culturing in the serum-free DMEM.
Cells were grown in Costar™ 96well clear cell culture microplates. After starvation, the cells were washed with 1× HBSS (1× regular Hank's balanced salt solution, 20 mM HEPES buffer, pH 7.0) in the presence of 2.5 mM probenicid, and labeled in the same buffer containing 4 μM Fluo-3 for 1 hour at room temperature. The cells were then washed twice with buffer, maintained with 100 μl 1× HBSS containing 2.5 mM probenicid. The assay was initiated by transferring 50 μl PAR agonist solution to the cell plate, and calcium signal was recorded over 6 minutes with a 6 sec interval using HTS7000 BioAssay Reader (PerkinElmer Life Science, Boston, MA). The fluorescent intensity before stimulation was recorded and used as a baseline. The percentage increase in fluorescence intensity after stimulation, relative to the baseline fluorescence, was analyzed and used directly as a measure for the increase of intracellular Ca^2+ level induced by PAR agonists.
(§5) Unless specifically mentioned, three replicates were carried out for each measurement or each compound. The standard deviation was derived from these measurements (n = 3). […] All dose-dependent responses were analyzed using non-linear regression method with the Prism software (Graph Pad).

[4] = system: endogenous PAR1 and PAR2 in A431 cells; test: MRCAT resonant waveguide grating biosensor DMR assay in quiescent A431 cells; type: cell-based, human; settings: for effect of preceding stimulation on trypsin-induced DMR signal: trypsin 200 nM; for desensitization of trypsin-treated cells (DMR signal): trypsin 200 nM first, repeated stimulation separated by ~1 hr; for Gq-type DMR signal: quiescent A431 cells, 20 μM
Protocol: as §4, §3, §5

[5] = system: cell surface cholesterol of A431 cells; test: Effect of cholesterol depletion (cyclodextrin pre-treatment) on agonist-induced Ca2+ mobilization; type: cell-based, human; settings: for IC50: one-phase decay fit
Description: Since the physiological significance of co-expression of two receptors in A431 is unclear, we were interested in the possibility of differentiated regulation of PAR1 and PAR2 signaling. A common mechanism for the cell to regulate and differentiate receptor signaling is compartmentalization of receptors and/or their signaling components. Amassing evidences support the hypothesis that there are many cholesterol-rich microdomains at the cell surface membrane, although their characteristics are still under extensive investigations. Such microdomain is believed to enable the sorting and segregation of receptors and their signaling cascades, thus regulating cell signaling. Methyl-β-cyclodextrin (mβCD) has been widely used to extract cell surface choleterol primarily through effluxing, thus disrupting these cholesterol-rich microdomains. Thus, we examined the effect of cholesterol depletion by mβCD on both Ca^2+ mobilization and DMR responses induced by thrombin and trypsin. […] Both dose-dependent inhibition curves appeared fit well with a one-phase decay non-linear regression, leading to an almost identical half-concentration (C1/2 of ~1.5 mM) of mβCD. This is consistent with the fact that mβCD results in rapid effluxing of cell membrane cholesterol molecules; and the amount of remain cell surface cholesterol depends on the concentration of mβCD in solution [27]. The higher concentration mβCD is, the less cholesterol is retained at the cell surface membrane. […]
(§6) Cells were grown in Costar™ 96well clear cell culture microplates. […] The assay was initiated by transferring 50 μl PAR agonist solution to the cell plate, and calcium signal was recorded over 6 minutes with a 6 sec interval using HTS7000 BioAssay Reader (PerkinElmer Life Science, Boston, MA). The fluorescent intensity before stimulation was recorded and used as a baseline. The percentage increase in fluorescence intensity after stimulation, relative to the baseline fluorescence, was analyzed and used directly as a measure for the increase of intracellular Ca^2+ level induced by PAR agonists.

[6] = system: cell surface cholesterol of A431 cells; test: Effect of cholesterol depletion (cyclodextrin pre-treatment) on agonist-induced DMR signals; type: cell-based, human
Protocol: Similarly, the mβCD pre-treatment also led to a dose-dependent attenuation of the DMR signals induced by thrombin or trypsin (Fig. 7). However, there is a clear distinction between the inhibition curves of trypsin- and thrombin-induced DMR signals by mβCD. […] As expected, αCD up to 8 mM had little effect on both agonist-induced DMR responses. […] A23187 is a Ca^2+ ionophore, and is able to release stored Ca^2+ from the endoplasmic reticulum in cells.
Figure 7 Cholesterol removal attenuates the agonist-induced DMR signals. mβCD was used to deplete cell surface cholesterol. Its effect on the amplitudes of the P-DMR events induced by (a) thrombin (40 unit/ml) or (b) trypsin (200 nM) was analyzed. In comparison, the effect of αCD was also included. (c) The DMR signals of A431 cells induced by A23187 without or with the pre-treatment with 5 mM mβCD.
as §3

A431 cells = test: Cell toxicity / cell detachment from the biosensor surface; type: cell-based, human; settings: high doses (>8 mM)
EGFR in A431 cells [7] = test: Interference of EGFR activation with PAR signaling, Ca2+ mobilization; type: cell-based, human; settings: EGF 100 nM; trypsin 100 nM, thrombin 40 unit/ml
Description: as §1, §2, §6

[8] = 100 nM, trypsin 100 nM, thrombin 40 unit/ml

Molecule: COc1cc2ncnc(Nc3cccc(Cl)c3)c2cc1OC [AG1478]
- effect of pre-treatment on inhibition of trypsin-induced DMR by cholesterol depletion (EGFR in A431 cells [1]; data not shown): did not counter the inhibitory effect
- effect on trypsin-induced DMR signal (EGFR in A431 cells [2]): partially attenuated

Molecule: CC[C@H](C)[C@H](NC(=O)[C@H](CC(C)C)NC(=O)[C@@H](N)CO)C(=O)NCC(=O)N[C@@H](CCCCN)C(=O)N[C@H](C(N)=O)C(C)C [SLIGKV-amide] (H-SLIGKV-NH2; N-terminus assumed)
- maximal [Ca^2+]i elevation ([3]; A431 cells): 52 ± 6%
- EC50 ([3]; A431 cells, read-out: EC50 (n = 3) Ca^2+ flux assay): 3.8 ± 0.4 µM
- effect of preceding stimulation on trypsin-induced Ca^2+ mobilization ([3]; peptide 20 μM first, then trypsin 200 nM, separated by 6 min): partially attenuated
- responsiveness (Ca^2+ mobilization) after pre-stimulation with thrombin ([3]; separated by 6 min): not
- Ca^2+ mobilization response after pre-stimulation with trypsin [3]: completely blocked
- EC50 ([4]; A431 cells, amplitude of N-DMR event, read-out: EC50 (n = 3) N-DMR): 9.1 ± 2.2 µM
- EC50 ([4]; A431 cells, amplitude of P-DMR event, read-out: EC50 (n = 3) P-DMR): 6.1 ± 1 µM
- DMR signals in cells with or without pre-stimulation with thrombin ([4]; separated by ~1 hr): almost identical DMR signals
- effect of preceding stimulation on trypsin-induced DMR signal ([4]; separated by ~1 hr): only partially attenuated
- desensitization of trypsin-treated cells (DMR signal) [4]: only partially

Molecule: OC[C@H]1O[C@@H]2O[C@H]3[C@H](O)[C@@H](O)[C@@H](O[C@H]4[C@H](O)[C@@H](O)[C@@H](O[C@H]5[C@H](O)[C@@H](O)[C@@H](O[C@H]6[C@H](O)[C@@H](O)[C@@H](O[C@H]7[C@H](O)[C@@H](O)[C@@H](O[C@H]1[C@H](O)[C@H]2O)O[C@@H]7CO)O[C@@H]6CO)O[C@@H]5CO)O[C@@H]4CO)O[C@@H]3CO [αCD, α-cyclodextrin]
- effect on trypsin and thrombin-induced Ca^2+ mobilization responses ([5]; up to 8 mM): little effect
- effect on both agonist-induced (thrombin, trypsin) DMR responses ([6]; up to 8 mM): little effect
- cell toxicity and cell detachment from the biosensor surface (A431 cells): detectable cell toxicity

Molecule: GYPGQV
- rapid and transient increase in intracellular Ca^2+ [3]: only PAR1 and PAR2 agonists resulted in
- Gq-type DMR signal [4]: only PAR1 and PAR2 agonists resulted in

Molecule: Methyl-β-cyclodextrin [mβCD]
- IC50 ([5]; thrombin 40 unit/ml, read-out: half-concentration (C1/2) for suppression of thrombin-induced Ca^2+ mobilization): ~1500 µM
- IC50 ([5]; trypsin 200 nM, read-out: half-concentration (C1/2) for suppression of trypsin-induced Ca^2+ mobilization): ~1500 µM
- effect on DMR signal induced by 5 μM A23187 ([6]; pre-treatment at 5 mM): little effect
- IC50 ([6]; thrombin 40 unit/ml, P-DMR amplitude, read-out: C1/2 for suppression of thrombin-induced DMR): 1200 ± 300 µM
- IC50 ([6]; trypsin 200 nM, 2-phase decay, read-out: C1/2 for inhibition of trypsin-mediated DMR, first phase): 5000 ± 1000 µM
- IC50 ([6]; trypsin 200 nM, 2-phase decay, read-out: C1/2 for inhibition of trypsin-mediated DMR, second phase): 11000 ± 2000 µM

Molecule: TFRGAP
- rapid and transient increase in intracellular Ca^2+ [3]: only PAR1 and PAR2 agonists resulted in
- Gq-type DMR signal [4]: only PAR1 and PAR2 agonists resulted in

Molecule: Thrombin: serine protease, PAR1 agonist, purchased from Sigma
- EC50 (n = 3) Ca^2+ flux assay ([3]; A431 cells): 6.0 ± 1.0 unit/ml
- maximal [Ca^2+]i elevation ([3]; A431 cells): 48 ± 4%
- responsiveness (Ca^2+ mobilization) after pre-stimulation with thrombin ([3]; separated by 6 min): completely inhibited
- Ca^2+ mobilization response after pre-stimulation with trypsin [3]: completely blocked
- EC50 (n = 3) N-DMR ([4]; A431 cells, amplitude of N-DMR event): 11.0 ± 1.9 unit/ml
- EC50 (n = 3) P-DMR ([4]; A431 cells, amplitude of P-DMR event): 9.6 ± 2.0 unit/ml
- effect of preceding stimulation on trypsin-induced DMR signal ([4]; separated by ~1 hr): only partially attenuated
- desensitization of trypsin-treated cells (DMR signal) [4]: completely desensitized

Molecule: bradykinin (RPPGFSPFR; Bradykinin; UniProt P01042 381-389, looked up) [agonist for bradykinin B2 receptor]
- Ca^2+ mobilization response after pre-stimulation with PAR agonists ([3]; bradykinin 100 nM, separated by 6 min): neither of PAR agonists examined had any effect
- effect of preceding stimulation on DMR signal induced by any PAR agonist ([4]; bradykinin 100 nM first, separated by ~1 hr): no obvious effect
- desensitization of trypsin-treated cells (DMR signal) [4]: not

Molecule: epidermal growth factor (NSDSECPLSHDGYCLHDGVCMYIEALDKYACNCVVGYIGERCQYRDLKWWELR; UniProt P01133 971-1023, looked up) [EGF, epidermal growth factor, purchased from Sigma]
- effect of preceding stimulation on Ca^2+ mobilization induced by trypsin or thrombin (EGFR in A431 cells [7]): little effect
- effect on N-DMR event induced by either trypsin or thrombin (EGFR in A431 cells [1]; [8]): almost completely inhibited
- effect on P-DMR event induced by either trypsin or thrombin (EGFR in A431 cells [1]; [8]): only slightly attenuated
